According to the supplement of paper PMC3937590:

Key:
Assay in all cases: -log10 GI50 (growth inhibition 50%) (-log10(M)); higher = more potent growth inhibition
600MPE = system: 600MPE
Outline: (§1)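 A value carrying a < qualifier equals the top dose tested. Each compound was tested in triplicate on breast cancer cell lines for 72 hours at nine doses in 1:5 serial dilution, using a luminescence read-out against a time-zero plate. Nonlinear least squares fitting of a Gompertz curve gave GI50, the molar concentration causing the set level of growth inhibition, which is reported as its negative logarithm. The logarithm is base 10.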

T47D = system: T47D
Outline: as §1

MDAMB175VII = system: MDAMB175VII
Outline: as §1

ZR751 = system: ZR751
Outline: as §1

HCC1937 = system: HCC1937
Outline: as §1

SUM185PE = system: SUM185PE
Outline: as §1

HCC1569 = system: HCC1569
Outline: as §1

CAMA1 = system: CAMA1
Outline: as §1

SKBR3 = system: SKBR3
Outline: as §1

SUM52PE = system: SUM52PE
Outline: as §1

LY2 = system: LY2
Outline: as §1

MDAMB361 = system: MDAMB361
Outline: as §1

HCC2185 = system: HCC2185
Outline: as §1

AU565 = system: AU565
Outline: as §1

ZR75B = system: ZR75B
Outline: as §1

HCC1143 = system: HCC1143
Outline: as §1

SUM159PT = system: SUM159PT
Outline: as §1

MX1 = system: MX1
Outline: as §1

SUM1315MO2 = system: SUM1315MO2
Outline: as §1

HCC1428 = system: HCC1428
Outline: as §1

Row | Structure (SMILES) | -log10 GI50 (T47D) | -log10 GI50 (MDAMB175VII) | -log10 GI50 (HCC1937) | -log10 GI50 (HCC1569) | -log10 GI50 (SKBR3) | -log10 GI50 (MDAMB361) | -log10 GI50 (HCC2185) | -log10 GI50 (HCC1143) | -log10 GI50 (HCC1428) | -log10 GI50 (600MPE) | -log10 GI50 (ZR751) | -log10 GI50 (SUM185PE) | -log10 GI50 (CAMA1) | -log10 GI50 (SUM52PE) | -log10 GI50 (LY2) | -log10 GI50 (AU565) | -log10 GI50 (ZR75B) | -log10 GI50 (SUM159PT) | -log10 GI50 (MX1) | -log10 GI50 (SUM1315MO2)
1 | CC(=O)NCC(=O)N1[C@@H]2CC[C@H]1c1ccc(Nc3ncc(C(F)(F)F)c(NC4CCC4)n3)cc12 | 5.14 | 5.63 | 5.2 | 6.07 | 5.38 | 5.23 | 4.98 | 5.82 | 5.37 | 6.03 | 4.99 | 6.63 | 5.44 | 7.57 | 5.5 | 5.57 | 5.94 | 6.37 | 7 | 6.12
2 | CNC(=O)c1c(F)cccc1Nc1nc(Nc2cc3c(cc2OC)CCN3C(=O)CN(C)C)nc2[nH]ccc12 | 5.02 | 5.29 | 4.71 | 5.12 | 4.99 | 4.84 | 5.39 | 5.56 | 5.79 | 6.49 | 5.17 | 5.48 | 5.08 | 5.68 | 6.27 | 5.63 | 5.01 | 5.47 | 5.29 | 5.1
3 | Cn1ncc(Cl)c1-c1cc(C(=O)N[C@H](CN)Cc2ccc(F)c(F)c2)oc1Cl | 7.35 | 6.56 |  | 6.55 | 6.93 | 6.65 | > 9.77 | 5.41 | 4.94 |  | 8.26 | 6.28 | 7.02 | 6.3 | 6.62 | 6.09 |  | 6.28 | 8.11 | 5.01
4 | O=C1C(Cl)=C(NCCN2CCOCC2)C(=O)c2ncccc21 | 5.19 | 5.3 | 6.07 | 5.36 | 5.86 | 5.27 | 5.97 | 5.7 | 5.44 | 5.34 | 5.76 | 6.5 | 5.59 | 5.62 | 6.27 | 5.81 | 5.26 | 5.76 | 6.17 | 5.96
5 | Oc1cc(-c2nc(-c3ccccc3)[nH]c2-c2ccncc2)ccc1Cl | < 4.48 | 5.09 | 4.84 | 4.77 | 4.66 | 4.76 | < 4.48 | 4.39 | 4.97 | 5.07 | 4.59 | 5.19 | 4.4 | 5.13 |  | < 4.48 | 4.51 | 4.78 | 4.98 | 4.69
6 | Cn1cnc2c(F)c(Nc3ccc(Br)cc3Cl)c(C(=O)NOCCO)cc21 [AZD6244] | < 4.3 | 5.59 | < 4.3 | < 4.3 | < 4.3 | < 4.3 | < 4.3 | < 4.3 | < 4.3 | 6.24 | 4.75 | < 4.3 | < 4.3 | 5.01 | < 4.3 | < 4.3 | < 4.3 | 6.66 | 6.34 | 5.57
7 | O=c1[nH]c2ccccc2n1C1CCN(Cc2ccc(-c3[nH]c4cc5ncnc5cc4nc3-c3ccccc3)cc2)CC1 [Akt inhibitor VIII] | 5.78 | 5.75 | 5 | 5.07 | 5.68 | 6.06 | 5.86 | 4.87 | 5.35 | 5.15 | 6.13 | 5.95 | 5.17 | 5.85 | 5.85 | 5.61 | 5.93 | 5.12 | 5.45 | 5.34
8 | CN(C)C/C=C/C(=O)Nc1cc2c(Nc3ccc(F)c(Cl)c3)ncnc2cc1O[C@H]1CCOC1 [BIBW2992] |  | 8.35 | 5.68 | 6.56 | 7.88 | 8.21 | 5.86 | 5.86 | 5.76 | 5.63 | 5.63 | 5.46 | 5.65 | 5.47 | 5.65 |  | 5.52 | 5.59 | 6.58 | 6.79
9 | CS(=O)(=O)CCNCc1ccc(-c2ccc3ncnc(Nc4ccc(OCc5cccc(F)c5)c(Cl)c4)c3c2)o1 [Lapatinib] | 4.78 | 6.04 | < 4.78 | 5.47 | 6.39 | 5.33 | < 4.78 | < 4.78 | < 4.78 | < 4.78 | < 4.78 | < 4.78 | < 4.78 | < 4.78 |  | 6.4 | < 4.78 | < 4.78 | 5.27 | 4.82
10 | NS(=O)(=O)c1ccc(Nc2nc(OCC3CCCCC3)c3[nH]cnc3n2)cc1 [NU6102] | 4.82 | 4.28 | 4.27 | 4.79 | 4.51 | 4.58 | 4.84 | 4.87 | 4.87 |  | 4.82 | 5.02 | 4.79 | 5.27 | 4.56 | 4.64 | 4.85 | 4.9 | 5.47 | 5.42
11 | CCN(CC)CCNC(=O)c1c(C)[nH]c(/C=C2\C(=O)Nc3ccc(F)cc32)c1C [Sunitinib malate] | 4.94 | 5.18 | 5.16 | 5.14 | 5.17 | 4.92 | 4.7 | 5.16 | 5.29 | 5.4 | 4.88 | 5.98 | 5.07 | 5.94 | 5.14 | 5.42 |  | 5.81 | 5.27 | 5.12
12 | O=C(CCCCCCC(=O)Nc1ccccc1)NO [Vorinostat] | 3.97 | 4.29 |  | 3.98 | 4.32 | 4.26 | 4.28 | 3.9 | 4.42 | 4.18 | 3.77 | 4.42 | 4.13 | 4.73 | 3.86 | 4.08 | 4.02 | 3.92 | 4.06 | 3.77

Now from value to compound, other results behind:

Row | -log10 GI50 (T47D) | -log10 GI50 (MDAMB175VII) | -log10 GI50 (HCC1937) | -log10 GI50 (HCC1569) | -log10 GI50 (SKBR3) | -log10 GI50 (MDAMB361) | -log10 GI50 (HCC2185) | -log10 GI50 (HCC1143) | -log10 GI50 (HCC1428) | Structure (SMILES) | -log10 GI50 (600MPE) | -log10 GI50 (ZR751) | -log10 GI50 (SUM185PE) | -log10 GI50 (CAMA1) | -log10 GI50 (SUM52PE) | -log10 GI50 (LY2) | -log10 GI50 (AU565) | -log10 GI50 (ZR75B) | -log10 GI50 (SUM159PT) | -log10 GI50 (MX1) | -log10 GI50 (SUM1315MO2)
13 | 4.91 | 5.24 | 4.54 | 4.27 | 4.91 | 4.41 | 4.99 | < 4.18 | 4.45 | CCC[C@H](N[C@H]1CCc2cc(F)cc(F)c2C1)C(=O)Nc1cn(C(C)(C)CNCC(C)(C)C)cn1 | < 4.18 | 4.72 | 4.84 | < 4.18 | 5.24 | 4.68 | 4.98 | < 4.18 | < 4.18 | 5.76 | 4.65
14 | 6.97 | 6.79 | 4.95 | 4.74 | 5.31 | 5.78 | 6.6 | 6.88 | 6.33 | CCNCCCCNCCCCNCCCCNCCCCNC/C=C/CNCCCCNCCCCNCCCCNCCCCNCC | 6.49 | 6.82 | 6.68 | 6.43 | 6.81 | 5.18 | 6.31 | 6.38 | 6.6 | 6.57 | 5.69
15 | 7.27 | 7.23 | 6.92 | 6.78 | 7.33 | 7.36 | 7.12 | 6.86 | 6.51 | COc1ccc(-c2cc3c(C)nc(N)nc3n([C@H]3CC[C@H](OCCO)CC3)c2=O)cn1 | 7.32 | 7.62 | 6.77 | 6.74 | 7.26 | 7.04 | 7.51 | 7.28 | 6.73 | 7.41 | 7.06
16 | 5.34 | 5.23 | 5.25 | 5.68 | 5.14 | 5.44 | 5.18 | 5.7 | 5.13 | C[C@@H](Oc1cc(-c2cnn(C3CCNCC3)c2)cnc1N)c1c(Cl)ccc(F)c1Cl | 6.21 | 5.44 | 5.33 | 5.23 | 6.28 | 5.8 | 5.55 | 5.64 | 5.79 | 5.84 | 5.24
17 | < 4.48 | < 4.18 | < 4.48 | < 4.18 | < 4.48 | < 4.18 | < 4.18 | < 4.18 | < 4.18 | O=C(O)c1ccc(-c2c[nH]c3ncc(-c4ccccc4)cc23)cc1C1CCCC1 | < 4.18 | < 4.18 | 4.79 | < 4.18 | < 4.48 | 5.15 | < 4.48 | < 4.18 | < 4.48 | 4.45 | 6.1
18 | 7.01 | 7.02 | 6.89 | < 4.18 | 7.1 | 6.56 | < 4.18 | 6.95 | 4.97 | CCN(CC)C(=S)SSC(=S)N(CC)CC [Disulfiram] | 7.1 |  | < 4.18 | 4.85 | 4.53 | 5.01 | 6.84 |  | 6.65 | 4.54 | 6.36
19 | 5.92 | 5.1 | 6.1 | 5.15 | 6.84 | 8.35 | 7.93 | 5.83 | 5.06 | CO[C@H]1C[C@@H]2CC[C@@H](C)[C@@](O)(O2)C(=O)C(=O)N2CCCC[C@H]2C(=O)O[C@H]([C@H](C)C[C@@H]2CC[C@@H](OCCO)[C@H](OC)C2)CC(=O)[C@H](C)/C=C(\C)[C@@H](O)[C@@H](OC)C(=O)[C@H](C)C[C@H](C)/C=C/C=C/C=C/1C [Everolimus] | 4.7 | 7.55 | 5.8 | 8.15 | 7.73 | 7.52 |  |  | 6.36 | 5.33 | 5.23
20 | 6.82 | 6.41 | 6.72 | 6.81 | 7.25 | 7.46 | 7.16 | 7.09 | 6.98 | Cc1[nH]c2ccccc2c1CCNCc1ccc(/C=C/C(=O)NO)cc1 [LBH589] | 6.72 | 6.8 | 7.11 | 7.3 | 6.83 |  | 6.98 | 7.08 | 6.88 | 7.47 | 6.62
